Data: paper PMC7070908, “Structure-Guided Identification of Black Cohosh (Actaea racemosa) Triterpenoids with In Vitro Activity against Multiple Myeloma” (Molecules, 2020)
Values after ≈ are worked out from the molar mass of the structure shown. Values joined by “and” are separate entries in the source; they are usually repeats but may differ in a detail not shown here. Equal values may be shown once.

Legend:
MCF7 breast cancer cells = system: MCF7 breast cancer cells; parameters: method as in PMID 14758092; conditions: incubation times of 96 h; cited from earlier work
U266 myeloma cell line = assay: Cytotoxicity, flow cytometry (AnnexinV/propidium iodide negativity), U266; assay type: cell-based, human
Protocol: (§1) Induction of apoptosis was measured in myeloma cell lines NCI-H929, OPM-2, and U266 as well as in peripheral blood mononuclear cells (PBMCs) of healthy donors by flow cytometry using established protocols thereby staining the cells with AnnexinV-fluorescein isothiocyanate and propidium iodide. Bortezomib (Eubio, Vienna, Austria) was used as positive control. Cell lines were purchased from DSMZ (Braunschweig, Germany) and routinely fingerprinted and tested for mycoplasma negativity. All cells (cell lines and PBMC) were grown in RPMI-1640 medium (Life Technologies, Paisley, UK) supplemented with 10% fetal calf serum (FCS; PAA, Linz, Austria), L-glutamine 100 µg/mL, and penicillin-streptomycin 100 U/mL. PBMCs from healthy donors were used after obtaining written informed consent at the University Hospital Salzburg (ethics committee approval 415-E/1287/6-2011). Cells were subjected to Ficoll separation (Ficoll PaqueTM) and incubated in RPMI-1640 Media with supplements as above. In brief, 0.5 × 10^6 myeloma cells/mL or similar numbers of PMBCs were incubated for 24 h and 48 h with or without the tested compounds dissolved in dimethyl sulfoxide at different concentrations. At least three analyses in triplicates were performed for each cell line and a solvent control was always included. As a positive control, the proteasome inhibitor bortezomib (BTZ) was used at concentrations of 10 and 5 nM. The extent of non-apoptotic cells (AnnexinV/propidium iodide negativity) was calculated as percentage of viable cells in respect to the untreated control. Data are shown as mean percentage of viable cells and standard error of the mean (SEM) (error bars).

[1] = system: NCI-H929 myeloma cell line; assay: Cytotoxicity, flow cytometry (AnnexinV/propidium iodide negativity), NCI-H929; assay type: cell-based, human
Protocol: as §1

OPM-2 myeloma cell line = assay: Cytotoxicity, flow cytometry (AnnexinV/propidium iodide negativity), OPM-2; assay type: cell-based, human
Protocol: as §1

MCF7 cells = system: MCF7 cells; parameters: method as in PMID 20564500; conditions: 48 h of incubation; cited from earlier work
[2] = system: peripheral blood mononuclear cells (PBMCs) of healthy donors; assay: Cytotoxicity, flow cytometry (AnnexinV/propidium iodide negativity), PBMC of healthy donors; assay type: cell-based, human
Protocol: as §1

[3] = system: doxorubicin-resistant-MCF7 (R-MCF7) cells; parameters: method as in PMID 20564500; conditions: doxorubicin-resistant MCF7, 48 h of incubation; cited from earlier work
[4] = 12.5 µM, 24 h, second round (Table 3)
[5] = 25 µM, 24 h, second round (Table 3)
[6] = 37.5 µM, 24 h, second round (Table 3)
[7] = 25 µM, 24 h, % of untreated control, mean ± SEM (Table 1)
[8] = 25 µM, 48 h, % of untreated control, mean ± SEM (Table 2)
[9] = 50 µM, 24 h, % of untreated control, mean ± SEM (Table 1)

SMILES	IC50 growth inhibition of MCF7 breast cancer cells (MCF7 breast cancer cells) [µg/mL]	MM Cells % Alive U266 (U266 myeloma cell line; [4]) [%]	MM Cells % Alive U266 (U266 myeloma cell line; [5]) [%]	MM Cells % Alive U266 (U266 myeloma cell line; [6]) [%]	MM Cells % Alive NCI-H929 [1, 4] [%]	MM Cells % Alive NCI-H929 [1, 5] [%]	MM Cells % Alive NCI-H929 [1, 6] [%]	MM Cells % Alive OPM-2 (OPM-2 myeloma cell line; [4]) [%]	MM Cells % Alive OPM-2 (OPM-2 myeloma cell line; [5]) [%]	MM Cells % Alive OPM-2 (OPM-2 myeloma cell line; [6]) [%]	IC50 MCF7 (MCF7 cells) [µg/mL]	PBMC % Alive [2, 4] [%]	PBMC % Alive [2, 5] [%]	PBMC % Alive [2, 6] [%]	IC50 R-MCF7 [3] [µg/mL]	other results
CC(=O)O[C@@H]1C[C@@]23C[C@@]24CC[C@H](O[C@@H]2OC[C@@H](O)[C@H](O)[C@H]2O)C(C)(C)[C@@H]4CC=C3[C@]2(C)C[C@@H]3O[C@@]4(O)[C@H](OC(C)(C)[C@H]4O)[C@@H](C)[C@@H]3[C@@]12C [cimiracemoside A]	41															
C=C(C)C1OC23OC1CC(C)C2C1(C)CCC24CC25CCC(OC2OCC(O)C(O)C2O)C(C)(C)C5CCC4C1(C)C3O [Compound 9, 25-anhydrocimigenol-3-O-α-L-arabinopyranoside]		101.5 ± 5.1	101.8 ± 4.3	101.3 ± 3.3	96.0 ±1.0	92.8 ± 1.7	92.0 ± 1.5	95.8 ± 2.4	100.0 ± 1.9	104.0 ± 4.7						activity on U266 (in words) (U266 myeloma cell line; 24 h, up to 37.5 µM): no effect; activity on NCI-H929 (in words) ([1]; 24 h, up to 37.5 µM): no effect; activity on OPM-2 (in words) (OPM-2 myeloma cell line; 24 h, up to 37.5 µM): no effect
CC(=O)O[C@@H]1C[C@@]23C[C@@]24CC[C@H](O[C@@H]2OC[C@@H](O)[C@H](O)[C@H]2O)C(C)(C)[C@@H]4CC[C@H]3[C@]2(C)C[C@@H]3O[C@@]4(C[C@@H](C)[C@@H]3[C@@]12C)OC[C@@]1(C)O[C@@H]41 [23-epi-26-deoxyactein]	21															
CC(=O)OC(C)(C)C1OC23OC1CC(C)C2C1(C)CCC24CC25CCC(OC2OCC(O)C(O)C2O)C(C)(C)C5CCC4C1(C)C3O [Compound 4, 25-O-acetylcimigenol-3-O-β-D-xylopyranoside]		91.8 ± 4.2	87.8 ± 2.0	88.0 ± 1.2	84.3 ± 8.6	59.5 ± 8.7	27.8 ± 6.6	94.8 ± 5.3	90.3 ± 3.7	56.0 ± 13.0	4.3 (≈ 6.49 µM)	96.7 ± 2.9	72.7 ± 5.4	28.7 ± 5.9	4.8 (≈ 7.24 µM)	IC50 U266 (U266 myeloma cell line; incubation for 24 h): >37.5 µg/mL; IC50 NCI-H929 ([1]; incubation for 24 h): 20.3 µg/mL (≈ 30.6 µM); IC50 PBMC ([2]; incubation for 24 h): 20.7 µg/mL (≈ 31.2 µM); IC50 OPM-2 (OPM-2 myeloma cell line; incubation for 24 h): 26.3 µg/mL (≈ 39.7 µM)
CC(=O)OC(C)(C)C1OC23OC1CC(C)C2C1(C)CCC24CC25CCC(OC2OCC(O)C(O)C2O)C(C)(C)C5CCC4C1(C)C3O [Compound 3, 25-O-acetylcimigenol-3-O-α-L-arabinopyranoside]		95.0 ± 2.4	77.8 ± 4.6	48.0 ± 7.4	93.3 ± 1.8	59.5 ± 7.8	11.8 ± 4.3	99.5 ± 2.0	88.8 ± 1.8	70.8 ± 11.5	4.0 (≈ 6.03 µM)	101.7 ± 0.3	98.3 ± 2.0	58.7 ± 12.7	5.3 (≈ 8 µM)	MM Cells % Alive U266 (U266 myeloma cell line; [7]): 89.3 ± 3.2%; MM Cells % Alive U266 (U266 myeloma cell line; [8]): 66.8 ± 9.5%; MM Cells % Alive U266 (U266 myeloma cell line; [9]): 13% and 12.9 ± 3.5%; IC50 (U266 myeloma cell line; Homo sapiens, U-266, 24 h, incubation for 24 h): 24.7 µg/mL (≈ 37.3 µM); MM Cells % Alive NCI-H929 [1, 7]: 52.9 ± 7.1%; MM Cells % Alive NCI-H929 [1, 8]: 18.9 ± 3.3%; MM Cells % Alive NCI-H929 [1, 9]: 10% and 10.3 ± 2.8%; IC50 ([1]; Homo sapiens, NCI-H929, 24 h, incubation for 24 h): 18.1 µg/mL (≈ 27.3 µM); PBMC % Alive [2, 7]: 86.5 ± 2.7%; PBMC % Alive [2, 8]: 76.2 ± 1.8%; PBMC % Alive [2, 9]: 6.1 ± 1.5%; PBMC % Alive ([2]; 50 µM, 48 h, % of untreated control, mean ± SEM (Table 2)): 4.6 ± 0.1%; IC50 ([2]; Homo sapiens, PBMC, 24 h, incubation for 24 h): 25.9 µg/mL (≈ 39.1 µM); MM Cells % Alive OPM-2 (OPM-2 myeloma cell line; [7]): 63.8 ± 12%; MM Cells % Alive OPM-2 (OPM-2 myeloma cell line; [8]): 43.4 ± 9.3%; MM Cells % Alive OPM-2 (OPM-2 myeloma cell line; [9]): 20% and 19.7 ± 5.7%; IC50 (OPM-2 myeloma cell line; Homo sapiens, OPM-2, 24 h, incubation for 24 h): > 37.5 µg/mL
